Tests used:
Test in all cases: SelectScreen kinase panel
Format in all cases: biochemical
Aurora_A = molecular target: T1, Aurora_A (Homo sapiens, UniProt O14965)
T1 construct: purchased Invitrogen / ThermoFisher SelectScreen
Method in brief: (§1)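 Human kinases were profiled in Invitrogen's SelectScreen broad panel. Depending on the enzyme, inhibition was assessed by peptide phosphorylation (Z′-LYTE), by ADP formation (Adapta), or by displacement at the ATP site (LanthaScreen), and then reported as mean percent inhibition.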

PKC_eta = molecular target: T2, PKC_eta (Homo sapiens, UniProt P24723)
T2 construct: purchased Invitrogen / ThermoFisher SelectScreen
Method in brief: as §1

YSK1 = molecular target: T3, YSK1 (Homo sapiens, UniProt O00506)
T3 construct: purchased Invitrogen / ThermoFisher SelectScreen
Method in brief: as §1

PAK3 = molecular target: T4, PAK3 (Homo sapiens, UniProt O75914)
T4 construct: purchased Invitrogen / ThermoFisher SelectScreen
Method in brief: as §1

p70S6K = molecular target: T5, p70S6K (Homo sapiens, UniProt P23443)
T5 construct: purchased Invitrogen / ThermoFisher SelectScreen
Method in brief: as §1

Aurora_B = molecular target: T6, Aurora_B (Homo sapiens, UniProt Q96GD4)
T6 construct: purchased Invitrogen / ThermoFisher SelectScreen
Method in brief: as §1

JAK3 = molecular target: T7, JAK3 (Homo sapiens, UniProt P52333)
T7 construct: purchased Invitrogen / ThermoFisher SelectScreen
Method in brief: as §1

TYK2 = molecular target: T8, TYK2 (Homo sapiens, UniProt P29597)
T8 construct: purchased Invitrogen / ThermoFisher SelectScreen
Method in brief: as §1

PKC_zeta = molecular target: T9, PKC_zeta (Homo sapiens, UniProt Q05513)
T9 construct: purchased Invitrogen / ThermoFisher SelectScreen
Method in brief: as §1

eEF-2K = molecular target: T10, eEF-2K (Homo sapiens, UniProt O00418)
T10 construct: purchased Invitrogen / ThermoFisher SelectScreen
Method in brief: as §1

DYRK3 = molecular target: T11, DYRK3 (Homo sapiens, UniProt O43781)
T11 construct: purchased Invitrogen / ThermoFisher SelectScreen
Method in brief: as §1

RSK1 = molecular target: T12, RSK1 (Homo sapiens, UniProt Q15418)
T12 construct: purchased Invitrogen / ThermoFisher SelectScreen
Method in brief: as §1

SIK2 = molecular target: T13, SIK2 (Homo sapiens, UniProt Q9H0K1)
T13 construct: purchased Invitrogen / ThermoFisher SelectScreen
Method in brief: as §1

LRRK2 = molecular target: T14, LRRK2 (Homo sapiens, UniProt Q5S007); conditions: NIK SMI1 1 µM; ATP Km app
T14 construct: purchased Invitrogen / ThermoFisher SelectScreen
Method in brief: as §1

IKK_beta = molecular target: T15, IKK_beta (Homo sapiens, UniProt O14920)
T15 construct: purchased Invitrogen / ThermoFisher SelectScreen
Method in brief: as §1

P38_beta = molecular target: T16, P38_beta (Homo sapiens, UniProt Q15759)
T16 construct: purchased Invitrogen / ThermoFisher SelectScreen
Method in brief: as §1

MST3 = molecular target: T17, MST3 (Homo sapiens, UniProt Q9Y6E0)
T17 construct: purchased Invitrogen / ThermoFisher SelectScreen
Method in brief: as §1

CK1_alpha1 = molecular target: T18, CK1_alpha1 (Homo sapiens, UniProt P48729)
T18 construct: purchased Invitrogen / ThermoFisher SelectScreen
Method in brief: as §1

CHK1 = molecular target: T19, CHK1 (Homo sapiens, UniProt O14757)
T19 construct: purchased Invitrogen / ThermoFisher SelectScreen
Method in brief: as §1

MAPKAPK2 = molecular target: T20, MAPKAPK2 (Homo sapiens, UniProt P49137)
T20 construct: purchased Invitrogen / ThermoFisher SelectScreen
Method in brief: as §1

DYRK4 = molecular target: T21, DYRK4 (Homo sapiens, UniProt Q9NR20)
T21 construct: purchased Invitrogen / ThermoFisher SelectScreen
Method in brief: as §1

MARK1 = molecular target: T22, MARK1 (Homo sapiens, UniProt Q9P0L2)
T22 construct: purchased Invitrogen / ThermoFisher SelectScreen
Method in brief: as §1

BrSK1 = molecular target: T23, BrSK1 (Homo sapiens, UniProt Q8TDC3)
T23 construct: purchased Invitrogen / ThermoFisher SelectScreen
Method in brief: as §1

IKK_alpha = molecular target: T24, IKK_alpha (Homo sapiens, UniProt O15111)
T24 construct: purchased Invitrogen / ThermoFisher SelectScreen
Method in brief: as §1

ROCK2 = molecular target: T25, ROCK2 (Homo sapiens, UniProt O75116)
T25 construct: purchased Invitrogen / ThermoFisher SelectScreen
Method in brief: as §1

PrKX = molecular target: T26, PrKX (Homo sapiens, UniProt P51817)
T26 construct: purchased Invitrogen / ThermoFisher SelectScreen
Method in brief: as §1

NEK9 = molecular target: T27, NEK9 (Homo sapiens, UniProt Q8TD19)
T27 construct: purchased Invitrogen / ThermoFisher SelectScreen
Method in brief: as §1

PKC_beta1 = molecular target: T28, PKC_beta1 (Homo sapiens, UniProt P05771)
T28 construct: purchased Invitrogen / ThermoFisher SelectScreen
Method in brief: as §1

CSK = molecular target: T29, CSK (Homo sapiens, UniProt P41240)
T29 construct: purchased Invitrogen / ThermoFisher SelectScreen
Method in brief: as §1

TrkB = molecular target: T30, TrkB (Homo sapiens, UniProt Q16620)
T30 construct: purchased Invitrogen / ThermoFisher SelectScreen
Method in brief: as §1

TXK = molecular target: T31, TXK (Homo sapiens, UniProt P42681)
T31 construct: purchased Invitrogen / ThermoFisher SelectScreen
Method in brief: as §1

Fes = molecular target: T32, Fes (Homo sapiens, UniProt P07332)
T32 construct: purchased Invitrogen / ThermoFisher SelectScreen
Method in brief: as §1

T14 sequence (Q5S007 whole entry): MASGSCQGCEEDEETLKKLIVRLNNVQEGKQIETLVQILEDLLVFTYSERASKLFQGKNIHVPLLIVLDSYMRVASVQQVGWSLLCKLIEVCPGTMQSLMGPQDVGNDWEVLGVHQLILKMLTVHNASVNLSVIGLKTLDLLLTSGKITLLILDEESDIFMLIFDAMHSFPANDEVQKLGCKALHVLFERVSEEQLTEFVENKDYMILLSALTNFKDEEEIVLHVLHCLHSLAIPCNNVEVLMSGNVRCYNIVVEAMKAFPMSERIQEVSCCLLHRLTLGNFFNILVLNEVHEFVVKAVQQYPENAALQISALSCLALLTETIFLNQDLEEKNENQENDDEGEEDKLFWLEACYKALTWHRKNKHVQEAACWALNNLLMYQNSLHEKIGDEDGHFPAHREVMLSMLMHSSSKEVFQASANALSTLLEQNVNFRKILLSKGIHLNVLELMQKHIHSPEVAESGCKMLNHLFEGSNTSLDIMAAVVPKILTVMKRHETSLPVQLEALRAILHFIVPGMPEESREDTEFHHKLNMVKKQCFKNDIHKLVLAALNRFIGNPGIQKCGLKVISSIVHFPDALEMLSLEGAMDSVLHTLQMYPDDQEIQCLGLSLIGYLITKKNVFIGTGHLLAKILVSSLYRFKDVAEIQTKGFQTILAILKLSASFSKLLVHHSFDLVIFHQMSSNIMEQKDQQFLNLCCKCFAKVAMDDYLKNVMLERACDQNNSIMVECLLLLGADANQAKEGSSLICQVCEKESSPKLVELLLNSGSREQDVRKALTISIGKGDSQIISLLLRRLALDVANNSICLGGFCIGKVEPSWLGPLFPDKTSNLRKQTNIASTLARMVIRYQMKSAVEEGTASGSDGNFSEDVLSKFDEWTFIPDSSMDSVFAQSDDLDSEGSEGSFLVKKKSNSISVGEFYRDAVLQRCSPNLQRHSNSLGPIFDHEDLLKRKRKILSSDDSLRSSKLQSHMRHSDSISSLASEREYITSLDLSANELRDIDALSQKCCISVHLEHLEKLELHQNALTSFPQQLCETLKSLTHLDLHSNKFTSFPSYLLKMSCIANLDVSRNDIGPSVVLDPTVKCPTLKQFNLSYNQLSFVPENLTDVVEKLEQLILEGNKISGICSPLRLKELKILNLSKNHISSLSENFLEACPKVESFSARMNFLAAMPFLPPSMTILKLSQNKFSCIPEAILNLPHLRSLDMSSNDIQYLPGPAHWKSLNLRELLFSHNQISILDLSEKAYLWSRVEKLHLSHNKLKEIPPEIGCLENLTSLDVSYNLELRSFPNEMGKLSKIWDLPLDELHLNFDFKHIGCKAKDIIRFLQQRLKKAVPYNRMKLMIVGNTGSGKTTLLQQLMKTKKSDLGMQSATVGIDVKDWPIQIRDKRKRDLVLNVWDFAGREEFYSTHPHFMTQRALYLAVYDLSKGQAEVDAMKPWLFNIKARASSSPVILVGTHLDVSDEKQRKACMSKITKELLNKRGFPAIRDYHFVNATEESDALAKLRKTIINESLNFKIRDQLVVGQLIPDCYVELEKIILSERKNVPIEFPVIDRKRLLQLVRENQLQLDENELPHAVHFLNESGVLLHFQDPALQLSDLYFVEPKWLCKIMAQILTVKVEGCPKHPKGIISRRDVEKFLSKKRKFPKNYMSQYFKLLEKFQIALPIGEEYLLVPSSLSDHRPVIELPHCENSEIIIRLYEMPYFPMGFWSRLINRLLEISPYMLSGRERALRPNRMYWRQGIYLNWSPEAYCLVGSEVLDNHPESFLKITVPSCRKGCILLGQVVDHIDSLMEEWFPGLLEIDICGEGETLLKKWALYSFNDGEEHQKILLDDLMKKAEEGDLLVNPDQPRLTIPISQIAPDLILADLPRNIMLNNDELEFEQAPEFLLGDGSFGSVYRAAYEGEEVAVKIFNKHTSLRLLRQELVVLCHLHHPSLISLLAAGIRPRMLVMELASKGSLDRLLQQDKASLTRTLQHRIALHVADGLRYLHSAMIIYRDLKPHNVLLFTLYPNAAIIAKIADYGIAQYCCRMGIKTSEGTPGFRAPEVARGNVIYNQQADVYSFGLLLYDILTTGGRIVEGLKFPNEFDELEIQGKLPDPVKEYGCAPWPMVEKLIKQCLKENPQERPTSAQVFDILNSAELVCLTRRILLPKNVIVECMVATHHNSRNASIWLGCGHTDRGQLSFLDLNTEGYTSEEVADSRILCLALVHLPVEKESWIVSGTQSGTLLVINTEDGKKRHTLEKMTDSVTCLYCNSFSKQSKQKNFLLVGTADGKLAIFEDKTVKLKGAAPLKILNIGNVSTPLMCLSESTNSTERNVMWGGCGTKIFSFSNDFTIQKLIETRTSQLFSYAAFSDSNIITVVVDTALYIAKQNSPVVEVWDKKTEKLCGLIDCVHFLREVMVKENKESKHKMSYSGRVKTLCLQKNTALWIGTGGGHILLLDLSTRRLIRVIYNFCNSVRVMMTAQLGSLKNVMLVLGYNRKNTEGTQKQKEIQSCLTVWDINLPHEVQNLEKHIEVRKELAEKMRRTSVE
T5 sequence (P23443 whole entry): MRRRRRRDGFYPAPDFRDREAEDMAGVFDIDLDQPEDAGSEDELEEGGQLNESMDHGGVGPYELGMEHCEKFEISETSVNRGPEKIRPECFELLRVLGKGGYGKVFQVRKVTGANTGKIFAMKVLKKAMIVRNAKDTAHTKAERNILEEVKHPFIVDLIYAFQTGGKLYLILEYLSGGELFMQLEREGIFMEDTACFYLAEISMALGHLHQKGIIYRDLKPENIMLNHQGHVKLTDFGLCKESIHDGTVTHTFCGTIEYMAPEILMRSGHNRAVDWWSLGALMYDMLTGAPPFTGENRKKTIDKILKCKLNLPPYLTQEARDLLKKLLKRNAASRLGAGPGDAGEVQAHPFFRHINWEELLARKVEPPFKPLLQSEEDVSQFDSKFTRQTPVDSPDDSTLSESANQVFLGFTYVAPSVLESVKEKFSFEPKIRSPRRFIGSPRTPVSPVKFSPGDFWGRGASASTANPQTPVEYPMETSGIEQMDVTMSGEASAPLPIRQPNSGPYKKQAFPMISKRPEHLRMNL
T18 sequence (P48729 whole entry): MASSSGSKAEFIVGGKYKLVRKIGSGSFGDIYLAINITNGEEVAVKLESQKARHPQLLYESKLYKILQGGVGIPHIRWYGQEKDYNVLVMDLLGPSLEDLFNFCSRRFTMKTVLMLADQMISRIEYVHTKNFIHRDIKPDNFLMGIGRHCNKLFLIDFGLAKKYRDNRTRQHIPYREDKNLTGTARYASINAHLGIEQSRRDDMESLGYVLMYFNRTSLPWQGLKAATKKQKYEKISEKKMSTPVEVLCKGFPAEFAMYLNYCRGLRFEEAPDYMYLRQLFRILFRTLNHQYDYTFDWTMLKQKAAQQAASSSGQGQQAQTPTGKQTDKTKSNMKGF
T24 sequence (O15111 whole entry): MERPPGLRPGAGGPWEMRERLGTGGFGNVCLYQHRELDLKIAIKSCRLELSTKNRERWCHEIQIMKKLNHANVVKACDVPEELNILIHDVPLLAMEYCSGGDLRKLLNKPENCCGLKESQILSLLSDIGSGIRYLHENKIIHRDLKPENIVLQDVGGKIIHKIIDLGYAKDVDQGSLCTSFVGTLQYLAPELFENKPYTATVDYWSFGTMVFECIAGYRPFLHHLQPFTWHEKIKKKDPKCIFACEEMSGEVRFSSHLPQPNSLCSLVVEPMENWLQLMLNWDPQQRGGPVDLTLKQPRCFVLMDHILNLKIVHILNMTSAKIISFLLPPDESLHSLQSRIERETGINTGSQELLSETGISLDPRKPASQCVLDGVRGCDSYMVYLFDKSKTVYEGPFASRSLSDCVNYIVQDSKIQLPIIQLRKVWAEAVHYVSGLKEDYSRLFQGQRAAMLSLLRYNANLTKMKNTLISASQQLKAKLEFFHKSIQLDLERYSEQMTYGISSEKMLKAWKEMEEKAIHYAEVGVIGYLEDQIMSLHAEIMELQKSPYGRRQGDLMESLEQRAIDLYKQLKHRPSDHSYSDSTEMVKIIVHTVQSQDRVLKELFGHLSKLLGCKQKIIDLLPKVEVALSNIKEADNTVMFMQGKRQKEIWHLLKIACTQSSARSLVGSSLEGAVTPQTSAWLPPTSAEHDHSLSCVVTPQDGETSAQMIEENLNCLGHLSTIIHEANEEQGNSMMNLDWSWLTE
T32 sequence (P07332 whole entry): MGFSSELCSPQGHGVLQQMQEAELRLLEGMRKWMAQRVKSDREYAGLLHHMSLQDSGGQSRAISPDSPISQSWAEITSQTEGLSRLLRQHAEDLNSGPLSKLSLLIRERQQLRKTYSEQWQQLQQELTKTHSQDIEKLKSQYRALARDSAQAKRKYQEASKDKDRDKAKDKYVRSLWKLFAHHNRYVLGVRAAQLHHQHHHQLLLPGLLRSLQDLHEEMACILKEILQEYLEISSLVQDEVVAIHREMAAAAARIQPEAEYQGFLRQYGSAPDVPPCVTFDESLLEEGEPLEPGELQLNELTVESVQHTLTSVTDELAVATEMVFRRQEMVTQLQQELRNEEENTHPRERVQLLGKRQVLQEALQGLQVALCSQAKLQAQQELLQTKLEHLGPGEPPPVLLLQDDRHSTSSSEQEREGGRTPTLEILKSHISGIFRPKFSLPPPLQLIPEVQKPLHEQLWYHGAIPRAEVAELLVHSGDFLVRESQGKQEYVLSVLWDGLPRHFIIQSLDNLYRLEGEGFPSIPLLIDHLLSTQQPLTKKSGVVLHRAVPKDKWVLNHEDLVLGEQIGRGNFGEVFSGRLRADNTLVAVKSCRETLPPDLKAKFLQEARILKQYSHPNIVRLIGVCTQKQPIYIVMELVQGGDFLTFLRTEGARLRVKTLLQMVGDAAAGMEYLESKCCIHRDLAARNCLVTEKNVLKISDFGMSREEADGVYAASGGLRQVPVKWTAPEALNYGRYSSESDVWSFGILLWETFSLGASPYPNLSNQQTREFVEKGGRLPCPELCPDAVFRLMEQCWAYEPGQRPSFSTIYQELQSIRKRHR

`COc1cc(C(N)=O)nc(-c2cccc(C#C[C@]3(O)CCN(C)C3=O)c2)c1` [NIK SMI1] was tested, and the inhibition at 1 µM (Aurora_A) was 1%, the inhibition at 1 µM (PKC_eta) was 38% and the inhibition at 1 µM (YSK1) was 39%. For the same compound, the inhibition at 1 µM (PAK3) was -3.5%, the inhibition at 1 µM (p70S6K) was 9.5% and the inhibition at 1 µM (Aurora_B) was 24.5%. It also gave an inhibition at 1 µM (JAK3) of 15%, an inhibition at 1 µM (TYK2) of 2% and an inhibition at 1 µM (PKC_zeta) of 7%. For the same compound, the inhibition at 1 µM (eEF-2K) was 4%, the inhibition at 1 µM (DYRK3) was 1.5% and the inhibition at 1 µM (RSK1) was 4.5%. The inhibition at 1 µM (SIK2) was 5.5%, the “% Inhibition” value (LRRK2) was 82.1% and the inhibition at 1 µM (LRRK2) was greater than 75%. For the same compound, the inhibition at 1 µM (IKK_beta) was 4.5%, the inhibition at 1 µM (P38_beta) was 9% and the inhibition at 1 µM (MST3) was 32.5%. It also gave an inhibition at 1 µM (CK1_alpha1) of 2%, an inhibition at 1 µM (CHK1) of 14% and an inhibition at 1 µM (MAPKAPK2) of -5%. The inhibition at 1 µM (DYRK4) was 5.5%, the inhibition at 1 µM (MARK1) was 16% and the inhibition at 1 µM (BrSK1) was 13.5%. The inhibition at 1 µM (IKK_alpha) was 3.1%, the inhibition at 1 µM (ROCK2) was 7.5% and the inhibition at 1 µM (PrKX) was 11%. The inhibition at 1 µM (NEK9) was 1.5%, the inhibition at 1 µM (PKC_beta1) was 1.5% and the inhibition at 1 µM (CSK) was 12.5%. It also gave an inhibition at 1 µM (TrkB) of -3.5%, an inhibition at 1 µM (TXK) of 4.5% and an inhibition at 1 µM (Fes) of 20.5%.

Reference: article PMC5766581, “NF-κB inducing kinase is a therapeutic target for systemic lupus erythematosus” (Nature Communications, 2018)
